Patent US8063071B2 (GlaxoSmithKline, LLC, priority 2007, dated 2011)
Counter-ions that a name gives are not always drawn.

What was measured:
[1] = target: T1, Recombinant human IKKβ (residues 1-737) (Homo sapiens, UniProt O14920); assay: IKK2 assay (TR-FRET); type: biochemical; details: ATP 1 μM final, read-out: pIC50 against IKK2 (converted)
T1 construct: Recombinant human IKKβ (residues 1-737); GST (C); made in house
T1 sequence (O14920 1-737): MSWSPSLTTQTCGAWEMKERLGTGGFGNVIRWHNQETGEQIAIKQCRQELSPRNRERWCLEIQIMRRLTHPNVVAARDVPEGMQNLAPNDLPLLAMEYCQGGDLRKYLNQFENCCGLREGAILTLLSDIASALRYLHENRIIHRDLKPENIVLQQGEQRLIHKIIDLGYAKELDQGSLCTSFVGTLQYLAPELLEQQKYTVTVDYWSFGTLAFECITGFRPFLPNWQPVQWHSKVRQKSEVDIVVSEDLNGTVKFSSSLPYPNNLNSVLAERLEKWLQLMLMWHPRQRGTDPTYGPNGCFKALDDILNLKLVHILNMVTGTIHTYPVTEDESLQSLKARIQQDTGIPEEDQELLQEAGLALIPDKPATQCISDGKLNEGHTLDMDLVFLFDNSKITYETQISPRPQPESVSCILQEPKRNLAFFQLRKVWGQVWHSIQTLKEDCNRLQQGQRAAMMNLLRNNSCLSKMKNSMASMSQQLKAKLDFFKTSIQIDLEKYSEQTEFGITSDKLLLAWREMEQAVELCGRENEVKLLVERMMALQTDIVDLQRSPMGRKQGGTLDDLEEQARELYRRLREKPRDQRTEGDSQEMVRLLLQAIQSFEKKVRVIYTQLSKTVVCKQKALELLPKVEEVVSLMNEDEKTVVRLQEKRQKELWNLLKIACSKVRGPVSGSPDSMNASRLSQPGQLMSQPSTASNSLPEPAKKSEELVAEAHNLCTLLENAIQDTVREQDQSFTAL
Summary of the method: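 Baculovirus-expressed C-terminal GST-tagged IKKβ (0.5-5 nM final) in HEPES pH 7.4, MgCl2, CHAPS, DTT, BSA with 1.7% DMSO; 25 nM GST-IB substrate and 1 μM ATP, 15 min at room temperature. EDTA stop; phospho-Ser32/36 detected by Eu-antibody/APC-anti-GST TR-FRET, 665/620 nm ratio.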

[2] = system: human monocyte stimulated cytokine production (TNF-α); assay: Monocyte assay (LPS-stimulated TNF-α production); type: cell-based; details: for IC50: 24 h, 200 ng/mL LPS, TNF-α by ELISA; for inhibition at 0.3 µM: read-out: inhibition at 300 nM in the monocyte assay
Summary of the method: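 Human CD14+ monocytes were purified from blood and plated at 1×10^6 cells/mL in RPMI 1640 with 10% FBS. Compound was added 30 min before stimulation with 200 ng/mL LPS (0.1% DMSO final), followed by 24 hrs at 37 C. Supernatant TNF-α was measured by ELISA, and viability by trypan blue exclusion.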

SMILES	IC50 [1] [µM]	IC50 [2] [µM]	inhibition at 0.3 µM [2] [%]
CCN(CC)Cc1ccc(-c2cc(C(N)=O)c3[nH]cc(C4CCN(S(=O)(=O)CC)CC4)c3c2)s1 [Example 242, 5-{5-[(diethylamino)methyl]-2-thienyl}-3-[1-(ethylsulfonyl)-4-piperidinyl]-1H-indole-7-carboxamide trifluoroacetate]	≤ 10	≤ 1.5	
CCS(=O)(=O)N1CCC(c2c[nH]c3c(C(N)=O)cc(-c4cc(CN5CCC[C@H]5COC)cs4)cc23)CC1 [Example 215, 3-[1-(ethylsulfonyl)-4-piperidinyl]-5-[4-({(2S)-2-[(methyloxy)methyl]-1-pyrrolidinyl}methyl)-2-thienyl]-1H-indole-7-carboxamide trifluoroacetate]	≤ 10	≤ 1.5	
CCS(=O)(=O)N1CCC(c2c[nH]c3c(C(N)=O)cc(-c4ccc(CNCC(C)(C)C)s4)cc23)CC1 [Example 171, 5-(5-{[(2,2-dimethylpropyl)amino]methyl}-2-thienyl)-3-[1-(ethylsulfonyl)-4-piperidinyl]-1H-indole-7-carboxamide]	≤ 10	≤ 1.5	
CCS(=O)(=O)N1CCC(c2c[nH]c3c(C(N)=O)cc(-c4cccc(CN5CCCC5)c4)cc23)CC1 [Example 276, 3-[1-(ethylsulfonyl)-4-piperidinyl]-5-[3-(1-pyrrolidinylmethyl)phenyl]-1H-indole-7-carboxamide trifluoroacetate]	≤ 10	≤ 1.5	
CCS(=O)(=O)N1CCC(c2c[nH]c3c(C(N)=O)cc(-c4ccc(CNCCC(C)C)s4)cc23)CC1 [Example 190, 3-[1-(ethylsulfonyl)-4-piperidinyl]-5-(5-{[(3-methylbutyl)amino]methyl}-2-thienyl)-1H-indole-7-carboxamide]	≤ 10		0 to 60
CCS(=O)(=O)N1CCC(c2c[nH]c3c(C(N)=O)cc(-c4cccc(CN(C)CC(N)=O)c4)cc23)CC1 [Example 39, 5-(3-{[(2-amino-2-oxoethyl)(methyl)amino]methyl}phenyl)-3-[1-(ethylsulfonyl)-4-piperidinyl]-1H-indole-7-carboxamide trifluoroacetate]	≤ 10		0 to 60
CCS(=O)(=O)N1CCC(c2c[nH]c3c(C(N)=O)cc(-c4csc(CN(C)CCN(C)C)c4)cc23)CC1 [Example 69, 5-(5-{[[2-(dimethylamino)ethyl](methyl)amino]methyl}-3-thienyl)-3-[1-(ethylsulfonyl)-4-piperidinyl]-1H-indole-7-carboxamide trifluoroacetate]	≤ 10	≤ 1.5	
CCS(=O)(=O)N1CCC(c2c[nH]c3c(C(N)=O)cc(-c4ccc(CNC5CCCC5)cc4)cc23)CC1 [Example 143, 5-{4-[(cyclopentylamino)methyl]phenyl}-3-[1-(ethylsulfonyl)-4-piperidinyl]-1H-indole-7-carboxamide trifluoroacetate]	≤ 10	> 1	
CCS(=O)(=O)N1CCC(c2c[nH]c3c(C(N)=O)cc(-c4ccnc(N5CCOCC5)c4)cc23)CC1 [Example 204, 3-[1-(ethylsulfonyl)-4-piperidinyl]-5-[2-(4-morpholinyl)-4-pyridinyl]-1H-indole-7-carboxamide trifluoroacetate]	≤ 10	> 1	
CCS(=O)(=O)N1CCC(c2c[nH]c3c(C(N)=O)cc(-c4csc([C@H](C)N5CCCC5)c4)cc23)CC1 [Example 212, 3-[1-(ethylsulfonyl)-4-piperidinyl]-5-{5-[(1S)-1-(1-pyrrolidinyl)ethyl]-3-thienyl}-1H-indole-7-carboxamide]	≤ 10	≤ 1.5	
CCOCCCNCc1ccc(-c2cc(C(N)=O)c3[nH]cc(C4CCN(S(=O)(=O)CC)CC4)c3c2)s1 [Example 193, 5-[5-({[3-(ethyloxy)propyl]amino}methyl)-2-thienyl]-3-[1-(ethylsulfonyl)-4-piperidinyl]-1H-indole-7-carboxamide]	≤ 10	> 1	
CCCNCc1cccc(-c2cc(C(N)=O)c3[nH]cc(C4CCN(S(=O)(=O)CC)CC4)c3c2)c1 [Example 24, 3-[1-(ethylsulfonyl)-4-piperidinyl]-5-{3-[(propylamino)methyl]phenyl}-1H-indole-7-carboxamide]	≤ 10	> 1	
CCS(=O)(=O)N1CCC(c2c[nH]c3c(C(N)=O)cc(-c4cc(C#N)cc(CN(C)C)c4)cc23)CC1 [Example 358, 5-{3-cyano-5-[(dimethylamino)methyl]phenyl}-3-[1-(ethylsulfonyl)-4-piperidinyl]-1H-indole-7-carboxamide trifluoroacetate]	≤ 10	≤ 1.5	
CCS(=O)(=O)N1CCC(c2c[nH]c3c(C(N)=O)cc(-c4cccc(CCNC(=O)C5CCCCC5)c4)cc23)CC1 [Example 134, 5-(3-{2-[(cyclohexylcarbonyl)amino]ethyl}phenyl)-3-[1-(ethylsulfonyl)-4-piperidinyl]-1H-indole-7-carboxamide]	≤ 10	> 1	
CCCCNCc1cc(-c2cc(C(N)=O)c3[nH]cc(C4CCN(S(=O)(=O)CC)CC4)c3c2)cs1 [Example 121, 5-{5-[(butylamino)methyl]-3-thienyl}-3-[1-(ethylsulfonyl)-4-piperidinyl]-1H-indole-7-carboxamide trifluoroacetate]	≤ 10	≤ 1.5	
CCS(=O)(=O)N1CCC(c2c[nH]c3c(C(N)=O)cc(-c4csc(CNC(C)C)c4)cc23)CC1 [Example 231, 3-[1-(ethylsulfonyl)-4-piperidinyl]-5-(5-{[(1-methylethyl)amino]methyl}-3-thienyl)-1H-indole-7-carboxamide trifluoroacetate]	≤ 10	≤ 1.5	
CCSCCN(C)Cc1cc(-c2cc(C(N)=O)c3[nH]cc(C4CCN(S(=O)(=O)CC)CC4)c3c2)cs1 [Example 430, 3-[1-(ethylsulfonyl)-4-piperidinyl]-5-(5-{[[2-(ethylthio)ethyl](methyl)amino]methyl}-3-thienyl)-1H-indole-7-carboxamide]	≤ 10		0 to 60
CCC(C)CNCc1ccc(-c2cc(C(N)=O)c3[nH]cc(C4CCN(S(=O)(=O)CC)CC4)c3c2)s1 (stereo not drawn) [Example 182, 3-[1-(ethylsulfonyl)-4-piperidinyl]-5-(5-{[(2-methylbutyl)amino]methyl}-2-thienyl)-1H-indole-7-carboxamide]	≤ 10	≤ 1.5	
CCS(=O)(=O)N1CCC(c2c[nH]c3c(C(N)=O)cc(-c4ccc(CNCCOC)s4)cc23)CC1 [Example 188, 3-[1-(ethylsulfonyl)-4-piperidinyl]-5-[5-({[2-(methyloxy)ethyl]amino}methyl)-2-thienyl]-1H-indole-7-carboxamide]	≤ 10		0 to 60
CCS(=O)(=O)N1CCC(c2c[nH]c3c(C(N)=O)cc(-c4ccc(C5CNCCN5)cc4)cc23)CC1 (stereo not drawn) [Example 299, 3-[1-(ethylsulfonyl)-4-piperidinyl]-5-[4-(2-piperazinyl)phenyl]-1H-indole-7-carboxamide trifluoroacetate]	≤ 10	> 1	
CCS(=O)(=O)N1CCC(c2c[nH]c3c(C(N)=O)cc(-c4csc(CN(C)C5CCN(C)CC5)c4)cc23)CC1 [Example 42, 3-[1-(ethylsulfonyl)-4-piperidinyl]-5-(5-{[methyl(1-methyl-4-piperidinyl)amino]methyl}-3-thienyl)-1H-indole-7-carboxamide trifluoroacetate]	≤ 10	≤ 1.5	
